Where a name gives a salt, the structure may show the parent alone. Bounds are passed on as bounds.

What all share (assay type): biochemical
For test [1], the system named is deoxyribose. The test is described as follows: TBARS assay, chelants 0.07-0.11 mM during ultrasound exposure, ferrous iron (Example 3). As to conditions: 0.025 mM ferrous iron, 0.07-0.11 mM chelant, 0.01% hydrogen peroxide, pH 7.5, 30 W 2 MHz 10 min. Here is the method: (§1) The following example uses the thiobarbituric acid-reactive substances (TBARS) assay to identify chelants that enhance radical production during ultrasound exposure. All solutions were prepared in pH 7.5 phosphate buffer containing approximately 2 mM deoxyribose, 0.01% hydrogen peroxide, 0.025 mM ferrous iron, and 0.07-0.11 mM chelant. Solutions were sonicated at 30 W, 2 MHz, 32-34 degrees Celsius for ten minutes using a PZT-8 1.8 cm diameter custom transducer. The sonicated solution was placed on an orbit shaker rotating at 25 RPM to ensure even sonication of the solution while the transducer was held stationary. Control solutions were placed in a controlled temperature bath at 32-34 degrees Celsius without sonication. After 10 minutes of treatment, 1 mL test solution was placed in a test tube followed by 2 mL of 1% 2-thiobarbituric acid and 2 mL of 2.8% trichloroacetic acid. The test tube was sealed and heated to 90 degrees Celsius for 30 minutes and allowed to cool to room temperature for 20 minutes. The absorbance at 532 nm was measured. The enhanced radical production during ultrasound exposure was determined by comparing the amount of deoxyribose degradation that occurs in the sonicated solution versus the control solution using the following equation: [formula]

Test [2] relates to deoxyribose. As to the kind of experiment: TBARS assay, anti tumor antibiotics, ultrasound (Example 12). As to conditions: 0.005 mM ferrous iron, 0.005 mM ferric iron, 15 min. Here is the method: The following example uses the thiobarbituric acid-reactive substances (TBARS) assay to identify anti tumor antibiotics that enhance radical production during ultrasound. All solutions are prepared in pH 7.5 phosphate buffer containing approximately 2 mM deoxyribose, 0.01% hydrogen peroxide, 0.005 mM ferrous iron, 0.005 mM ferric iron, and the additives indicated in the table below. Solutions are sonicated at 30 W, 2 MHz, 32-34 degrees Celsius for fifteen minutes using a PZT-8 1.8 cm diameter custom transducer. The sonicated solution is placed on an orbit shaker rotating at 25 RPM to ensure even sonication of the solution while the transducer is held stationary. Control solutions are placed in a controlled temperature bath at 32-34 degrees Celsius without sonication. After 15 minutes of treatment, 1 mL test solution was placed in a test tube followed by 2 mL of 1% 2-thiobarbituric acid and 2 mL of 2.8% trichloroacetic acid. The test tube is sealed and heated to 90 degrees Celsius for 30 minutes and allowed to cool to room temperature for 20 minutes. The absorbance at 532 nm is measured. The enhanced radical production during ultrasound exposure is determined by comparing the amount of deoxyribose degradation that occurs in the sonicated solution versus the control solution using the following equation: [formula]

The subject of test [3] is deoxyribose. The test is described as follows: TBARS assay, chelants during ultrasound exposure, ferrous iron (Example 1). As to conditions: 0.025 mM ferrous iron, 0.03-0.04 mM chelant, 0.01% hydrogen peroxide, pH 7.5, 30 W 2 MHz 10 min. Here is the method: as §1, with “and 0.03-0.04” for “and 0.07-0.11”, “exposure is” for “exposure was”
The test system of test [4] is deoxyribose. As to the kind of experiment: TBARS assay, chelants during ultrasound exposure, ferric iron (Example 2). Conditions: 0.02-0.03 mM ferric iron, 0.04-0.05 mM chelant, 0.01% hydrogen peroxide, pH 7.5, 30 W 2 MHz 10 min. Here is the method:
as §1, with “0.02-0.03” for “0.025”, “ferric” for “ferrous”, “0.04-0.05” for “0.07-0.11”

A short description of test [5]: Free radical production when exposed to ultrasound and a metal (statements in the description).

Turning to `c1cnc2c(c1)ccc1cccnc12` [1,10 Phenanthroline], the “% Ultrasound Mediated Activity vs Control” value with deoxyribose [1] was found to be 33%.

Regarding `Cc1c(C(=O)O)c(O)cc2c1C(=O)c1c(O)c([C@@H]3O[C@H](CO)[C@@H](O)[C@H](O)[C@H]3O)c(O)c(O)c1C2=O` [Carminic acid], in the test on deoxyribose [2] (0.025 mM additive), the “% Ultrasound Mediated Activity vs Control” value is on record as greater than 100%.

With `COC1C(O)CC(OC2CC(Oc3cc4cc5c(c(O)c4c(O)c3C)C(=O)[C@@H](OC3CC(OC4CC(OC6CC(C)(O)C(OC(C)=O)C(C)O6)C(O)C(C)O4)C(O)C(C)O3)[C@H]([C@H](OC)C(=O)[C@@H](O)[C@@H](C)O)C5)OC(C)C2OC(C)=O)OC1C` (stereo partly drawn) [Chromomycin], the “% Ultrasound Mediated Activity vs Control” value with deoxyribose [2] (0.025 mM additive) is greater than 100%.

Consider `COc1cccc2c1C(=O)c1c(O)c3c(c(O)c1C2=O)C[C@@](O)(C(C)=O)C[C@@H]3O[C@H]1C[C@H](N)[C@H](O)[C@H](C)O1` [Daunomycin], for which, in the test on deoxyribose [2] (0.1 mM additive), the “% Ultrasound Mediated Activity vs Control” value is listed as greater than 100%.

On to `CC(=O)N(O)CCCCCNC(=O)CCC(=O)N(O)CCCCCNC(=O)CCC(=O)N(O)CCCCCN` [Desferrioxamine mesylate], for which the “% Ultrasound Mediated Activity vs Control” value with deoxyribose [3] is listed as 92%; in the test on deoxyribose [4] it was 81%.

As for `O=C(O)CN(CC(=O)O)C1CCCCC1N(CC(=O)O)CC(=O)O` (stereo not drawn) [Diaminocyclohexane-N,N,N′,N′-tetraacetic acid], the figures for the “% Ultrasound Mediated Activity vs Control” value in the test with deoxyribose [3] and with deoxyribose [4] were 61% and 446%, respectively.

For the compound `O=C(O)CN(CCN(CC(=O)O)CC(=O)O)CCN(CC(=O)O)CC(=O)O` [Diethylenetriaminepentaacetic acid], in the test with deoxyribose [4], the “% Ultrasound Mediated Activity vs Control” value was 177%.

`COc1cccc2c1C(=O)c1c(O)c3c(c(O)c1C2=O)C[C@@](O)(C(=O)CO)C[C@@H]3O[C@H]1C[C@H](N)[C@@H](O)[C@H](C)O1` [Epirubicin]: in the test on deoxyribose [2] (0.1 mM additive), the “% Ultrasound Mediated Activity vs Control” value was greater than 100%.

On to `O=C(O)CN(CCOCCOCCN(CC(=O)O)CC(=O)O)CC(=O)O` [Ethylene glycol-bis(2-aminoethyl)-N,N,N′,N′-tetraacetic acid], for which the “% Ultrasound Mediated Activity vs Control” value with deoxyribose [3] was 29%; in the test with deoxyribose [4], 520%.

With `CO[C@@]12[C@H](COC(N)=O)C3=C(C(=O)C(C)=C(N)C3=O)N1C[C@@H]1N[C@@H]12` [Mitomycin C], the “% Ultrasound Mediated Activity vs Control” value with deoxyribose [2] (0.025 mM additive) is on record as greater than 100%.

As to `O=C(O)CN(CCO)CCN(CC(=O)O)CC(=O)O` [N-(2-Hydroxyethyl)ethylenediamine-N,N′,N′-triacetic acid], the “% Ultrasound Mediated Activity vs Control” value is 34% in the test with deoxyribose [3] and 224% in the test with deoxyribose [4].

Consider `O=C(O)CN(CC(=O)O)CC(=O)O` [Nitriloacetic acid], for which the “% Ultrasound Mediated Activity vs Control” value in the test with deoxyribose [3] is 69%; in the test on deoxyribose [4], 238%.

For `COC1=C(N)C(=O)c2nc(-c3nc(C(=O)O)c(C)c(-c4ccc(OC)c(OC)c4O)c3N)ccc2C1=O` [Streptonigrin], the “% Ultrasound Mediated Activity vs Control” value with deoxyribose [2] (0.025 mM additive) is listed as greater than 100%.

Consider `O=C(O)P(=O)(O)O` [phosphonoformic acid], for which, in test [5] (added to an iron/EDTA system, ultrasound), the radical production entry is recorded as “radical production was increased”.

With `O=S([O-])[O-].[Na+].[Na+]` [sodium sulfite], the free radical production result in test [5] (when exposed to ultrasound and a metal) is “increase free radical production”.

Turning to Olivomycin, the “% Ultrasound Mediated Activity vs Control” value in the test on deoxyribose [2] (0.025 mM additive) is greater than 100%.
